Drawing on PMC11747586, “Synthesis and Investigation of Peptide–Drug Conjugates Comprising Camptothecin and a Human Protein‐Derived Cell‐Penetrating Peptide” (Chemical Biology & Drug Design, 2025), this text covers CC50 and Papp for one molecule.

One data set in a line: cells. The protocol:
Cell death was measured using resazurin, with 0.1% (v/v) Triton X‐100 as a control for 100% cell death. Data points are expressed as mean ± SD for at least two biological replicates. Dose response curves were fitted using [inhibitor] versus response with variable slope, Graphpad Prism v10. […] RBC lysis was determined by measuring released hemoglobin, with 0.1% (v/v) Triton X‐100 as a control for 100% cell lysis. Melittin was included as a membranolytic control. Data points are expressed as mean ± SD for two technical replicates. Dose response curves were fitted using [inhibitor] versus response with variable slope, Graphpad Prism v10. […] CC50 values are expressed as mean (SEM).
Cell death was measured using resazurin, with 0.1% (v/v) Triton X-100 as a control for 100% cell death. Data points are expressed as mean ± SD for at least two biological replicates. CC50 values are expressed as mean (SEM). Note: CPT-dipeptide-PDIP was not included in this study. c[A]PDIP is a desulfurized variant of cPDIP 2 (see Table S1) to prevent the presence of free thiol during assays. […]
HaCaT cells were grown in DMEM medium and HT144 cells were grown in RPMI medium supplemented with 2 mM L-glutamine and 10 mM sodium pyruvate. Media were supplemented with 10% (v/v) fetal bovine serum, 100 units/mL of penicillin and […] of streptomycin. Flasks of cultured cells were maintained in a humidified incubator (37 °C, 5% CO2) and passaged every 2–3 days to maintain cultures between 20–90% confluence. Cell line identity was verified by comparing […]
STR profiles of the cell lines against database entries from the DSMZ-German collection of microorganisms and cell cultures, GmBH https://celldive.dsmz.de/str/browse.
Toxicity to the HT144 and HaCaT cell lines was tested following peptide treatment by measuring the metabolism of resazurin into fluorescent resorufin. The assays were performed with 5000 cells/well (96-well plate) in serum free media. Cells were incubated with serially diluted peptides, PDCs or […]

A short description of data set [1]: Parallel artificial membrane permeability assay (PAMPA). It counts as in vitro ADME. As to conditions: PAMPA. Here is the method: FIGURE 4 (A) Membrane permeability and cellular uptake of PDCs, scaffold peptides, and CPT. Compounds were added to PAMPA wells (4 μM) and incubated for 4 h. Supernatant from apical and basolateral sides of the membrane were collected and analyzed using LC–MS. The amount in the combined soluble fractions was compared to the starting amount to determine % recovery, and the apparent permeability (Papp) was calculated as before (Sevin et al. [2013]). Data is expressed as mean ± SD from a single experiment with three technical replicates. (B) Internalization/cell membrane association of PDCs 12–14 and PDIP with HT144 cells. Cells were treated with PDIP or PDCs (4 μM) for 1 h, washed to remove extracellular compound, then extracted with 75% (v/v) MeCN in mQH2O (containing 1.75% (v/v) TFA), to recover soluble peptide or PDC from precipitated cell proteins. The relative amount of internalized peptide or PDC was determined by integrating area under the curve (AUC) for the [M + 6H]^6+ m/z peak (for the intact mass) using time of flight–mass spectrometry (see Figure S2). […] Data is expressed as mean ± SD from a single experiment with three technical replicates for each treatment and control and was analyzed with ANOVA (Tukey multiple comparisons; **p < 0.01, *p < 0.05). (C) Detection of intracellular CPT following 6 h treatment of HT144 cells with CPT and PDCs 12 and 14. […] Data is expressed as mean ± SD from a single experiment with three technical replicates for each treatment and was analyzed with ANOVA (Fisher multiple paired comparisons; **p < 0.01, *p < 0.05). TEXT PRINTED IN THE PICTURE: (A) PDIP: % recovered (soluble fractions): 94 | (A) 12: % recovered (soluble fractions): 58 | (A) 14: % recovered (soluble fractions): 33 | (A) 15: % recovered (soluble fractions): 40 | (A) c[A] PDIP: % recovered (soluble fractions): 34 | (A) CPT: % recovered (soluble fractions): 92 […]
For the first assay, the PDCs (12–15), scaffold peptides and CPT (4 μM) were added to the apical side of PAMPA monolayers and incubated for 4 h. […] PDIP, CPT, and PDCs 12 and 14 had high permeability (Papp ≥ 2 × 10^−6 cm/s), highlighting that these PDCs maintain membrane permeability with the CPT cargo attached. […] Reliable permeability data were not obtained for PDC 13 because of poor recovery of the PDC from soluble fractions, and degradation during the 4 h PAMPA experiment. […] Instability of the carbonate linkage within CPT conjugates containing a dipeptide linker has been previously reported (Walker et al. [2002]), highlighting the potential incompatibility of this drug–linker combination for CPT PDCs. Considering the observed degradation of 13 in the cell‐free assay, it is also possible that extracellular degradation occurred during the cytotoxicity assays.
Parallel artificial membrane permeability assay (PAMPA)
PAMPA was performed according to the manufacturer instructions for the BD Gentest pre-coated PAMPA plate system (BD Biosciences), as previously described.16 Briefly, peptides and PDCs (4 μM in PBS) were added to the apical side of PAMPA wells and incubated for 4 h at 37 °C, 5% CO2 with 95% humidity. Soluble fractions were recovered from the apical and basolateral sides, and compound concentration was quantified using a Shimadzu LCMS-2020 instrument with a Phenomenex 5 µm C18 / 300 Å / 150 x 2 mm LC column. Data was collected from three technical replicates for each compound. The % recovery was determined from (combined from apical and basolateral fractions) relative to the starting concentration:
Recovery rate : R (%) = (C஺ ×V஺ +C஻ ×V஻ )× 100 where CA and CB are the apical and basolateral concentrations (µM), VA and VB are the apical and basolateral volumes (mL), and C0 is the initial concentration (µM).
The apparent permeability coefficient (Papp) was calculated using the following equations17 and where A is the membrane surface area (cm2): […]

Positions of bridges follow the written chain, without caps; N, C: chain ends. Residues, ends and D or L forms follow the SMILES beside them.

The term CC50 denotes the concentration giving 50% cytotoxicity. A low value points to greater toxicity to the cells. A word on the Papp: it is the rate of passage across a membrane or cell layer, normalised by area and donor concentration. With `CC[C@H](C)[C@@H]1NC(=O)[C@H](CCCCN)NC(=O)[C@H](CCCCN)NC(=O)[C@H](Cc2ccc(O)cc2)NC(=O)[C@H](CC(C)C)NC(=O)[C@@H]2CCCN2C(=O)CNC(=O)CNC(=O)[C@@H](NC(=O)CN)CSSC[C@@H](C(=O)N[C@@H](CCC(=O)O)C(=O)N[C@@H](CO)C(N)=O)NC(=O)[C@H](CC(C)C)NC(=O)[C@H](CCCCN)NC(=O)[C@H](CCCCN)NC(=O)[C@H]([C@@H](C)CC)NC(=O)[C@H]([C@@H](C)CC)NC(=O)[C@H](CCCCN)NC(=O)[C@H](CCCCN)NC(=O)[C@H](Cc2ccc(O)cc2)NC(=O)[C@H](CC(C)C)NC(=O)[C@@H]2CCCN2C(=O)[C@H](C)NC(=O)CNC(=O)CNC(=O)[C@H](CO)NC(=O)CNC(=O)CNC(=O)[C@H](CO)NC(=O)[C@H](CCC(=O)O)NC(=O)[C@H](CC(C)C)NC(=O)[C@H](CC(C)C)NC(=O)[C@H](CCCCN)NC(=O)[C@H](CCCCN)NC(=O)[C@H]([C@@H](C)CC)NC1=O` [PDIP, reference compound] (H-GCGGPLYKKIIKKLLESGGSGGAPLYKKIIKKLCES-NH2; disulfide 2-34; N-terminus assumed), the CC50 in “cells” was found to be 4.83 µM. In data set [1], the Papp at 4 h, 4 μM was ≥ 2 ×10⁻⁶ cm/s.
